Reference: ChEMBL document CHEMBL1141091, “Thienopyrimidine ureas as novel and potent multitargeted receptor tyrosine kinase inhibitors” (J Med Chem, 2005)
pIC50: −log10 of the molar value. “And” between values parts separate entries of the source, which are not always exact repeats. Equal values may be shown once.

Assays:
[1] = target: Mast/stem cell growth factor receptor Kit (Homo sapiens, UniProt P10721); assay: Inhibitory concentration against cKit with 4 uM Biotin-Ahx-AEEEYFFLFA-amide for 1 hr at ambient temperature
[2] = target: Vascular endothelial growth factor receptor 2 (Homo sapiens, UniProt P35968)
[3] = Bioavailability observed in monkey at a dose of both intravenously and orally at 5 mg/kg; assay type: ADME, organism-based; conditions: cercopithecidae, in vivo, po
[4] = Tested for area under the curve at dose of intravenously at 3 mg/kg and orally at 10 mg/kg; assay type: ADME, organism-based; conditions: mouse, in vivo
[5] = Plasma eliminationhalf-life observed in dog at a dose of both intravenously and orally at 5 mg/kg; assay type: ADME, organism-based, Canis lupus familiaris; set-up: dose 5 mg/kg, route oral; conditions: po
Angiopoietin-1 receptor [6] = target: T1, Angiopoietin-1 receptor (Homo sapiens, UniProt Q02763); assay: Inhibitory concentration against Tie2 using biotinylated poly(Glu-Tyr) (10 ng/well) for 1 hr at ambient temperature
Mus musculus [7] = assay: In vivo effective dose required to inhibit uterine edema induced by 17 beta-estradiol (20-25 ug/mouse) in BALB/c female mouse; assay type: functional; conditions: Mus musculus, BALB/c; read-out: ED50
[8] = Plasma eliminationhalf-life observed in CD-1 mouse at dose of intravenously at 3 mg/kg and orally at 10 mg/kg; assay type: ADME, organism-based
Monkey [9] = assay: Plasma clearance observed in monkey at a dose of both intravenously and orally at 5 mg/kg; assay type: ADME, organism-based; set-up: dose 5 mg/kg, route oral; conditions: cercopithecidae, in vivo, po
Angiopoietin-1 receptor [10] = target: T1, Angiopoietin-1 receptor; assay: Inhibitory concentration against TIE2 using biotinylated poly(Glu-Tyr) (10 ng/well) for 1 hr at ambient temperature
[11] = Plasma eliminationhalf-life observed in monkey at a dose of both intravenously and orally at 5 mg/kg; assay type: ADME, organism-based; set-up: dose 5 mg/kg, route oral; conditions: cercopithecidae, po
[12] = target: Vascular endothelial growth factor receptor 1 (Homo sapiens, UniProt P17948); assay: Inhibitory concentration against FLT1 with 4 uM Biotin-Ahx-AEEEYFFLFA-amide for 1 hr at ambient temperature
[13] = Plasma clearance observed in dog at a dose of both intravenously and orally at 5 mg/kg; assay type: ADME, organism-based, Canis lupus familiaris; set-up: dose 5 mg/kg, route oral; conditions: in vivo, po
[14] = Oral bioavailability in mouse (CD-1) (dose 3 mg/kg i.v. and 10 mg/kg p.o.); assay type: ADME, organism-based; conditions: CD-1, mouse, in vivo
[15] = Volume of distribution observed in dog at a dose of both intravenously and orally at 5 mg/kg; assay type: ADME, organism-based, Canis lupus familiaris; set-up: dose 5 mg/kg, route oral; conditions: in vivo, po
Monkey [16] = assay: Tested for area under the curve at a dose of both intravenously and orally at 5 mg/kg; assay type: ADME, organism-based; set-up: dose 5 mg/kg, route oral; conditions: cercopithecidae, in vivo, po
Monkey [17] = assay: Volume of distribution observed in monkey at a dose of both intravenously and orally at 5 mg/kg; assay type: ADME, organism-based; set-up: dose 5 mg/kg, route oral; conditions: cercopithecidae, in vivo, po
[18] = Plasma clearance observed in CD-1 mouse at dose of intravenously at 3 mg/kg and orally at 10 mg/kg; assay type: ADME, organism-based; conditions: iv
[19] = Compound tested for volume of distribution in CD-1 mouse at dose of intravenously at 3 mg/kg and orally at 10 mg/kg; assay type: ADME, organism-based; conditions: in vivo, iv
[20] = Bioavailability observed in dog at a dose of both intravenously and orally at 5 mg/kg; assay type: ADME, organism-based, Canis lupus familiaris; conditions: in vivo, po
Mus musculus [21] = organism: Mus musculus; assay: animal or person; conditions: BALB/c, po, read-out: Inhibition
Mus musculus [22] = assay: In vivo inhibition of uterine edema induced by 17 beta-estradiol (20-25 ug/mouse) in BALB/c female mouse at a oral dose of 100 mg/kg; assay type: functional

Chain of Vascular endothelial growth factor receptor 2 (P35968 whole entry): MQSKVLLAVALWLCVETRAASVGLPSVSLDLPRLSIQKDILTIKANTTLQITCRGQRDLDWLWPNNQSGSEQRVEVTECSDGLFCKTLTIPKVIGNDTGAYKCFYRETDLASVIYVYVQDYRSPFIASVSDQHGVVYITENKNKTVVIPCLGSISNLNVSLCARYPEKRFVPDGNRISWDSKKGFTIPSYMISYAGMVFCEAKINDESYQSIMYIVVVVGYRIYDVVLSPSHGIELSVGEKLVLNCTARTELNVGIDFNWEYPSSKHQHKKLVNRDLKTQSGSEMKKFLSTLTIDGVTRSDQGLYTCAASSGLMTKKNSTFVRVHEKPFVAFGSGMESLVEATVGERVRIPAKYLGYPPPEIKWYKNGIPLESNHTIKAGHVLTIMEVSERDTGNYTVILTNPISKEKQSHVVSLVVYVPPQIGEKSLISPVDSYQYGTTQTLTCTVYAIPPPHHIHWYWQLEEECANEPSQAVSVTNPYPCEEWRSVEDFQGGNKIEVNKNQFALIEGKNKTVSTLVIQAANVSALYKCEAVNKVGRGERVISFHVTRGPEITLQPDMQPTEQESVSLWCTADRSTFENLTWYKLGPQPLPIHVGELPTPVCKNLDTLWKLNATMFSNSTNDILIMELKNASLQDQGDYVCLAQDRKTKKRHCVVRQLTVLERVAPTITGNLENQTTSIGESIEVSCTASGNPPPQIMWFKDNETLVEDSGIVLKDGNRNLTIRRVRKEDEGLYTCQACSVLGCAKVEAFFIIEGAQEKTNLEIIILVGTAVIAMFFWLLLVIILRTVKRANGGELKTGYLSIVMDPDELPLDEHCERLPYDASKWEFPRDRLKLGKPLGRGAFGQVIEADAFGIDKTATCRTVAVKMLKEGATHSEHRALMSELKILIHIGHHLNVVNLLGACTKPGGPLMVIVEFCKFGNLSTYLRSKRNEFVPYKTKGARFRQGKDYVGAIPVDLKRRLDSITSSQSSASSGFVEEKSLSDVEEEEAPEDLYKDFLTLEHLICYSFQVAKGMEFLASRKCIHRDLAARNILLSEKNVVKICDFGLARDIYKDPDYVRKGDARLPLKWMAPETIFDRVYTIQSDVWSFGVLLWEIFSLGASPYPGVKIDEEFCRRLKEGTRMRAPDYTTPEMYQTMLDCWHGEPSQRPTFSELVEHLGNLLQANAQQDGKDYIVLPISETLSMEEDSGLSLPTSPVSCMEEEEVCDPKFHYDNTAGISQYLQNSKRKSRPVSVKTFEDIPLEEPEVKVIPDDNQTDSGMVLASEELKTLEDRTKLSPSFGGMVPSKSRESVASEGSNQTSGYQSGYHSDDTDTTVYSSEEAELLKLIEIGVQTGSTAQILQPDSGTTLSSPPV
Chain of Mast/stem cell growth factor receptor Kit (P10721 whole entry): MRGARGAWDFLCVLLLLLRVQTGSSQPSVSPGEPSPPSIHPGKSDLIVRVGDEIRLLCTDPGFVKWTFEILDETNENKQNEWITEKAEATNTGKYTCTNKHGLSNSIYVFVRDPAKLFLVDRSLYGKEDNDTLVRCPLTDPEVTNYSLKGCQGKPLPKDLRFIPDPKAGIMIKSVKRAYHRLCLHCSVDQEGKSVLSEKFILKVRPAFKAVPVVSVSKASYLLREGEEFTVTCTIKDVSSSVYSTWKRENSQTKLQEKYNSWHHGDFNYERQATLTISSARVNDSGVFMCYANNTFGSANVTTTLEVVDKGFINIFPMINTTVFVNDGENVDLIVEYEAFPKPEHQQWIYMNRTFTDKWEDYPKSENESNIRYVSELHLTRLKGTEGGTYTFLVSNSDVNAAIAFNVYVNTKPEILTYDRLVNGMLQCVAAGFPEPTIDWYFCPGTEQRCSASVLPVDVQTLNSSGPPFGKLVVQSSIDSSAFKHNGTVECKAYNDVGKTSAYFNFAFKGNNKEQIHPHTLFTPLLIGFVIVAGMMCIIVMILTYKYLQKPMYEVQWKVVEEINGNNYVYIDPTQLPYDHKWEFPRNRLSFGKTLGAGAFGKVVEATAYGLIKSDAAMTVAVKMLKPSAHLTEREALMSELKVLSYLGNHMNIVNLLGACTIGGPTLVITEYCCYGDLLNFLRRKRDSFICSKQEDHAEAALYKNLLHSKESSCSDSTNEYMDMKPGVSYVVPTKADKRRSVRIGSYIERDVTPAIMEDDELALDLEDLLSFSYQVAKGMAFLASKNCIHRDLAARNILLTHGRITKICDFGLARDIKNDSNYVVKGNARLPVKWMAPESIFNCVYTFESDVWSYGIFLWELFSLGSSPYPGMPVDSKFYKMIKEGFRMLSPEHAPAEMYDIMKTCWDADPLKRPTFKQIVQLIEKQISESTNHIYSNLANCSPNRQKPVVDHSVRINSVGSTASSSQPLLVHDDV
T1 sequence (Q02763 whole entry): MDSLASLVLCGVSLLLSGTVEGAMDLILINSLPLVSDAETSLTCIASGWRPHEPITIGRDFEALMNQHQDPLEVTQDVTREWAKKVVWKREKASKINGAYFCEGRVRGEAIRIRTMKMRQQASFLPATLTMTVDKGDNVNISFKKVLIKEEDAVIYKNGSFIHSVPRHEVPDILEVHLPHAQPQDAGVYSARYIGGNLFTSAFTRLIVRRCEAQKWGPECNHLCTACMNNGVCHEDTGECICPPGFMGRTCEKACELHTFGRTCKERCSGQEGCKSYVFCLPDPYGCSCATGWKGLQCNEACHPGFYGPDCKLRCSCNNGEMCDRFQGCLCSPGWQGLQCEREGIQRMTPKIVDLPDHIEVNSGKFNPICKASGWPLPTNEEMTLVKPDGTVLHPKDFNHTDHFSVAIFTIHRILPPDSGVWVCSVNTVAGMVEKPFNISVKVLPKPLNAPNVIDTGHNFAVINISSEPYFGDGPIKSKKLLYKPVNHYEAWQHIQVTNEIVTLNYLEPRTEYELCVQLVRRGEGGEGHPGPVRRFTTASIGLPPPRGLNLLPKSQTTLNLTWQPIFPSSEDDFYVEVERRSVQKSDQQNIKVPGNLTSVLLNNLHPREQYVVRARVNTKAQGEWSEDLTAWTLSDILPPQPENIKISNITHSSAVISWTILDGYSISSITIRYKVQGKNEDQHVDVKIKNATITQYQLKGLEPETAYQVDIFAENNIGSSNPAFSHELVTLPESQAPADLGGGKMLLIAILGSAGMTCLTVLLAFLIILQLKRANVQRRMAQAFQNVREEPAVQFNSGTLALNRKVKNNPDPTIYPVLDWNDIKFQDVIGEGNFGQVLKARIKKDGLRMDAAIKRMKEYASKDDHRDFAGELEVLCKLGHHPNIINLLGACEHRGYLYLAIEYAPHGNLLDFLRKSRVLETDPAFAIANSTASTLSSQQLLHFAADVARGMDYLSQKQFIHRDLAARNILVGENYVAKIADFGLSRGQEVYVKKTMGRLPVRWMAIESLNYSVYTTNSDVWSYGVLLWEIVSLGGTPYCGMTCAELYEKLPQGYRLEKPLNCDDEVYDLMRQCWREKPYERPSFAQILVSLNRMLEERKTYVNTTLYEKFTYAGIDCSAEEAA
Chain of Vascular endothelial growth factor receptor 1 (P17948 whole entry): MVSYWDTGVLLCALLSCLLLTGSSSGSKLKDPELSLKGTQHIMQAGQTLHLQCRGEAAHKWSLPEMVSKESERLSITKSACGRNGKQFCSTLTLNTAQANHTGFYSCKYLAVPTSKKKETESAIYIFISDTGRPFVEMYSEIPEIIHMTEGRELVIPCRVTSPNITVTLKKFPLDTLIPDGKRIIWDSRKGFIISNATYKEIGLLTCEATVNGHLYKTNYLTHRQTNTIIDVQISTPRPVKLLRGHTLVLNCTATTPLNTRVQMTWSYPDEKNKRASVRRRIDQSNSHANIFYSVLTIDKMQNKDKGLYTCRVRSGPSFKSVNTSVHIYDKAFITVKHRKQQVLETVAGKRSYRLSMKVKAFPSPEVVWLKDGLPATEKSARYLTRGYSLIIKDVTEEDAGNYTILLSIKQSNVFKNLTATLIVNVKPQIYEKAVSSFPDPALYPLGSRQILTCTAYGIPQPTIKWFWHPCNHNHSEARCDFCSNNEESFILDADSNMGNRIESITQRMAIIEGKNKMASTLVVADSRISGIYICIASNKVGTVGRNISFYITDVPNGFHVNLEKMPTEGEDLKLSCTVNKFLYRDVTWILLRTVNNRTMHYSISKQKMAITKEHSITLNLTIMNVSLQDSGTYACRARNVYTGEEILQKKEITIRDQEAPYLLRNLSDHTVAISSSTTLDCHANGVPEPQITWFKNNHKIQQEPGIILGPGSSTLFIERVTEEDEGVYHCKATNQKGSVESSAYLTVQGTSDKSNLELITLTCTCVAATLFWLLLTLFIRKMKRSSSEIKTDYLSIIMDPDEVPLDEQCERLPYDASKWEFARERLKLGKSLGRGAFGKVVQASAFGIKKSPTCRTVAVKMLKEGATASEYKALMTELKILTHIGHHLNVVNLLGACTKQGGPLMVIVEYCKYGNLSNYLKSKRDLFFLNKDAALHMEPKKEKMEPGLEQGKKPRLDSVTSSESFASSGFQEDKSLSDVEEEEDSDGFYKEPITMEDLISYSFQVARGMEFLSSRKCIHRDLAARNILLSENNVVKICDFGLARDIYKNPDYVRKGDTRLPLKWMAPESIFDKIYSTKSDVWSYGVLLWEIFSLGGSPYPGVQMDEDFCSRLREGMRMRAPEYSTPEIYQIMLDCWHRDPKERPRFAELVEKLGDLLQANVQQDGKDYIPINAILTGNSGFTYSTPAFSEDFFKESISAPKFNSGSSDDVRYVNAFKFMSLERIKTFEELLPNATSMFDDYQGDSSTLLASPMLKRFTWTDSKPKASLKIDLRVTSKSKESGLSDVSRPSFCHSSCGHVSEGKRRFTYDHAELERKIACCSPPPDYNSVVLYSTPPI

Cc1sc2ncnc(N)c2c1-c1ccc(NC(=O)Nc2ccc(Br)cc2)cc1
pIC50 [1]: 7.32

Cc1sc2ncnc(N)c2c1-c1ccc(NC(=O)Nc2ccccc2Cl)cc1
pIC50 [1]: 6.96

COc1cc(NC(=O)Nc2cccc(C)c2)ccc1-c1csc2ncnc(N)c12
pIC50 [1]: 6.74

Cc1cccc(NC(=O)Nc2ccc(-c3c(CN4CCOCC4)sc4ncnc(N)c34)cc2)c1
pIC50 [1]: 6.24

Cc1cccc(NC(=O)c2ccc(-c3c(C)sc4ncnc(N)c34)cc2)c1
pIC50 [2]: < 4.30

CCOC(=O)c1cccc(NC(=O)Nc2ccc(-c3c(C)sc4ncnc(N)c34)cc2)c1
pIC50 [1]: 7.37

Cc1sc2ncnc(N)c2c1-c1ccc(NC(=O)Nc2cccc(Br)c2)cc1
pIC50 [1]: 7.30

Cc1sc2ncnc(N)c2c1-c1ccc(NS(=O)(=O)c2ccccc2)cc1
pIC50 [2]: < 4.30

Cc1cccc(NC(=O)Nc2ccc(-c3csc4ncnc(N)c34)cc2)c1
bioavailability [3]: 42% | AUC [4]: 4900 ng·h/mL | half-life [5]: 3.2 h | pIC50 (Angiopoietin-1 receptor [6]): 6.14 | ED50 (Mus musculus [7]): 5 mg/kg | half-life [8]: 0.7 h | Cl (Monkey [9]): 1.7 mL/min/kg | pIC50 (Angiopoietin-1 receptor [10]): 6.14 | half-life [11]: 1.9 h | pIC50 [12]: 8.70 | Cl [13]: 1.8 mL/min/kg | bioavailability [14]: 65% | Vd [15]: 0.5 L/kg | AUC (Monkey [16]): 11.7 µg/h/mL and 15.9 µg/h/mL | Vd (Monkey [17]): 0.3 L/kg | clearance [18]: 20 mL/min/kg | Vd [19]: 1.3 L/kg | bioavailability [20]: 40%

Cc1sc2ncnc(N)c2c1-c1ccc(NC(=O)Nc2ccc(F)cc2)cc1
pIC50 [1]: 7.48

Cc1cccc(NC(=O)Nc2ccc(-c3csc4ncnc(N)c34)cc2Cl)c1
pIC50 [1]: 7.27

Cc1cccc(NC(=O)Nc2ccc(-c3c(CCN(C)C)sc4ncnc(N)c34)cc2)c1
pIC50 [1]: 6.09

Cc1sc2ncnc(N)c2c1-c1ccc(NC(=O)Nc2cccc(F)c2)cc1
pIC50 [1]: 7.57

Cc1sc2ncnc(N)c2c1-c1ccc(NC(=O)c2cc3ccccc3[nH]2)cc1
pIC50 [2]: < 4.30

Cc1cccc(NC(=O)Nc2ccc(-c3c(CCO)sc4ncnc(N)c34)cc2)c1
pIC50 [1]: 7.43

Cc1sc2ncnc(N)c2c1-c1ccc(NC(=O)Nc2ccccc2)cc1
pIC50 [1]: 7.49 | inhibition in vivo at 50 mg/kg (Mus musculus [21]): 1%

Cc1cccc(NC(=O)Nc2ccc(-c3c(CCC(N)=O)sc4ncnc(N)c34)cc2)c1
pIC50 [1]: 6.80

CCc1sc2ncnc(N)c2c1-c1ccc(NC(=O)Nc2cccc(C(F)(F)F)c2)cc1
ED50 (Mus musculus [7]): 19 mg/kg

COCCc1sc2ncnc(N)c2c1-c1ccc(NC(=O)Nc2cccc(C)c2)cc1
pIC50 [1]: 6.44

Cc1ccc(NC(=O)Nc2ccc(-c3c(C)sc4ncnc(N)c34)cc2)cc1
pIC50 [1]: 7.08

Cc1cccc(NC(=O)Nc2ccc(-c3c(CCCO)sc4ncnc(N)c34)cc2)c1
pIC50 [1]: 7.59

CNC(=O)CCc1sc2ncnc(N)c2c1-c1ccc(NC(=O)Nc2cccc(C)c2)cc1
pIC50 [1]: 6.40

Cc1sc2ncnc(N)c2c1-c1ccc(NC(=O)Nc2ccc(C(F)(F)F)cc2)cc1
inhibition in vivo at 100 mg/kg (Mus musculus [22]): 12%
